Patent publication US20050124634A1, “1,4-dihydropyridine compounds, pharmaceutical compositions, and methods for the treatment of cardiovascular disease” (MYOGEN, INC., priority 2003, published 2005)

system: α-MyHC protein levels; assay: α-MyHC cytoblot assay in neonatal rat ventricular myocytes (NRVM); assay type: cell-based; settings: 10 mM Cpd; NRVM, 3 days
Experimental: FIG. 1 Concentration-dependent effect of Compound 1 on α-MyHC protein levels in the cytoblot assay. NRVM are cultured for 3 days in serum-free medium in the presence of differing amounts of Compound 1. At the end of the culture period, NRVM are fixed and analyzed for α-MyHC protein levels using the BA-G5 monoclonal antibody specific for α-MyHC. Results are collected as RLU using a Packard Fusion Plate reader, and normalized to the signal from samples cultured in the absence of compound (control, set to 100%).
Preparation and culture of neonatal rat ventricular myocytes (NRVM) was performed by removing hearts from 1-3 day old rat neonatal pups, along with the atria and lungs. The ventricles were cut into smaller pieces and digested 3 times with collagenase for 20-30 min at 37° C. The myocytes were then separated from other cell types using a Percoll gradient. The myocyte layer was collected, washed 2 times, and plated on tissue culture grade 10 cm Petri dishes for 1-2 hrs. The non-adherent cells (myocytes) were removed and plated in Costar clear view 96 well plates coated with 0.2% gelatin for at least 2 hrs. The gelatin solution was removed, and the myocytes were resuspended in DMEM high glucose media (Mediatech) containing 10% charcoal/dextran treated FBS (Hyclone) and 1% Penicillin-Streptomycin-Glutamine (PSG, Gibco). Ten thousand NRVM were plated per well in a 100 μl volume, and incubated overnight at 37° C. in 5% CO2 in air. The following day, the media was replaced with 100 μl of serum-free DMEM high glucose medium supplemented with PSG and 0.3% Nutridoma-SP (Roche).
Compounds were reconstituted in DMSO at 30 mM, and aliquots were stored at −20° C. A 1:1000 dilution was prepared in serum-free DMEM medium supplemented with PSG and 0.3% Nutridoma, and sonicated for 5 min at room temperature. After sonication, additional 3 fold dilutions were prepared in the same medium. Diluted compound was then added to the NRVM cultures in a volume of 100 μl. A 100 mM thyroid hormone stock solution (T3, Calbiochem) was prepared in 100 mM NaOH and added at a final concentration of 3 nM in DMEM medium supplemented with PSG and 0.3% Nutridoma-SP (Roche). NRVM were cultured for 3 days before detection of α-myosin heavy chain (α-MyHC) protein levels in the cytoblot assay.
For the α-MyHC cytoblot assay, NRVM cultures were analyzed for α-MyHC protein levels after 3 days of incubation. NRVM were washed 2 times with PBS, fixed with methanol for 30 min at 4° C., and washed an additional 2 times with PBS. Blocking solution consisting of PBS with 1% bovine serum albumin (BSA, Fisher Biotech) was added for 1 hr at room temperature before addition of a saturating amount of supernatant containing an α-MyHC specific antibody for 60 min at room temperature (BA-G5 hybridoma, ATTC). Two washes were performed with PBS/1% BSA, and a 1:500 dilution of HRP-goat anti-mouse IgG (Southern Biotech) diluted in PBS/1% BSA was added for 60 min at room temperature. Excess antibody was removed with 3 PBS washes, and a chemiluminescent substrate was added (Pierce SuperSignal West Pico Chemiluminscent Substrate) for 5 min before quantitation on a Packard Fusion Plate Reader.
As shown above in Table 1, Compound 1 increased α-MyHC protein levels as determined by an α-MyHC cytoblot assay. Compound 1 was added to NRVM at concentration ranging from 3 nM to 30 μM. After 3 days of incubation with NRVM, α-MyHC protein levels were detected in the cytoblot assay and quantitated (FIG. 1). […] An increase in α-MyHC protein levels was first detected beginning at 30 nM, with a maximal response observed at 3 μM. In six independent experiments, the concentration of Compound 1 that gave a half-maximal response was on average 60 nM.

Compared with `CC(=O)C1=C(C)NC(SCC(=O)c2cccc([N+](=O)[O-])c2)=C(C#N)C1c1cccc(C)c1` (racemic) [Compound 2], `CC(=O)C1=C(C)NC(SCC(=O)c2cccc([N+](=O)[O-])c2)=C(C#N)C1c1ccc(Cl)cc1` (racemic) [Compound 25] is higher in “% increase of a-MyHC over baseline at 10 mM Cpd” value (from here on “% increase … at 10 mM Cpd”): 95% for the first, 139% for the second.

Going from `CC(=O)C1=C(C)NC(SCC(=O)c2cc(Cl)ccc2Cl)=C(C#N)C1c1ccccc1Cl` (racemic) [Compound 3] to `CC(=O)C1=C(C)NC(SCC(=O)c2ccc(Cl)cc2Cl)=C(C#N)C1c1ccccc1Cl` (racemic) [Compound 22], the “% increase … at 10 mM Cpd” value falls from 314% to 81%.

First: CC(=O)C1=C(C)NC(SCC(=O)c2ccccc2Cl)=C(C#N)C1c1ccccc1Cl (racemic) [Compound 4]
Second: CC(=O)C1=C(C)NC(SCC(=O)c2ccccc2)=C(C#N)C1c1ccccc1Cl (racemic) [Compound 26]
The “% increase … at 10 mM Cpd” value of the first is lower: 135% for the first, 161% for the second.

Going from `CC(=O)C1=C(C)NC(SCC(=O)c2ccc(Cl)cc2)=C(C#N)C1c1ccccc1Cl` (racemic) [Compound 5] to `CC(=O)C1=C(C)NC(SCC(=O)c2ccc(Br)cc2)=C(C#N)C1c1ccccc1Cl` (racemic) [Compound 6], the “% increase … at 10 mM Cpd” value rises from 52% to 53%.

Compared with `CC(=O)C1=C(C)NC(SCC(=O)c2ccc(Cl)c(Cl)c2)=C(C#N)C1c1ccc(Cl)cc1` (racemic) [Compound 7], `CC(=O)C1=C(C)NC(SCC(=O)c2ccc(Cl)c(Cl)c2)=C(C#N)C1c1ccc(F)cc1` (racemic) [Compound 10] is higher in “% increase … at 10 mM Cpd” value: 43% for the first, 88% for the second.

Going from `CC(=O)C1=C(C)NC(SCC(=O)c2ccc(Cl)cc2Cl)=C(C#N)C1c1ccc(Cl)cc1` (racemic) [Compound 8] to `CC(=O)C1=C(C)NC(SCC(=O)c2ccc(Cl)cc2Cl)=C(C#N)C1c1ccc(F)cc1` (racemic) [Compound 11], the “% increase … at 10 mM Cpd” value rises from 29% to 51%.

First: CC(=O)C1=C(C)NC(SCC(=O)c2ccccc2Cl)=C(C#N)C1c1ccc(Cl)cc1 (racemic) [Compound 9]
Second: CC(=O)C1=C(C)NC(SCC(=O)c2ccc(Cl)cc2Cl)=C(C#N)C1c1ccccc1 (racemic) [Compound 15]
The “% increase … at 10 mM Cpd” value of the first is lower: 80% for the first, 81% for the second.

First: CC(=O)C1=C(C)NC(SCC(=O)c2ccc(Br)cc2)=C(C#N)C1c1cccc([N+](=O)[O-])c1 (racemic) [Compound 12]
Second: CC(=O)C1=C(C)NC(SCC(=O)c2ccc(Cl)c(Cl)c2)=C(C#N)C1c1cccc([N+](=O)[O-])c1 (racemic) [Compound 29]
The “% increase … at 10 mM Cpd” value of the first is lower: 34% for the first, 201% for the second.

First: CC(=O)C1=C(C)NC(SCC(=O)c2ccc(Cl)c(Cl)c2)=C(C#N)C1c1ccccc1 (racemic) [Compound 13]
Second: CC(=O)C1=C(C)NC(SCC(=O)c2cc(Cl)ccc2Cl)=C(C#N)C1c1ccccc1 (racemic) [Compound 27]
The “% increase … at 10 mM Cpd” value of the first is lower: 95% for the first, 303% for the second.

Compared with `CC(=O)C1=C(C)NC(SCC(=O)c2ccc([N+](=O)[O-])cc2)=C(C#N)C1c1ccccc1Cl` (racemic) [Compound 14], `CC(=O)C1=C(C)NC(SCC(=O)c2ccc([N+](=O)[O-])cc2)=C(C#N)C1c1ccccc1` (racemic) [Compound 28] is higher in “% increase … at 10 mM Cpd” value: 24% for the first, 125% for the second.

First: CC(=O)C1=C(C)NC(SCC(=O)c2cccc(Br)c2)=C(C#N)C1c1ccccc1 (racemic) [Compound 16]
Second: CC(=O)C1=C(C)NC(SCC(=O)c2ccccc2)=C(C#N)C1c1ccccc1 (racemic) [Compound 19]
The “% increase … at 10 mM Cpd” value of the first is higher: 143% for the first, 71% for the second.

Compared with `CC(=O)C1=C(C)NC(SCC(=O)c2ccc(Cl)cc2)=C(C#N)C1c1ccccc1` (racemic) [Compound 17], `CC(=O)C1=C(C)NC(SCC(=O)c2ccc(F)cc2)=C(C#N)C1c1ccccc1` (racemic) [Compound 18] is higher in “% increase … at 10 mM Cpd” value: 29% for the first, 37% for the second.

Going from `CC(=O)C1=C(C)NC(SCC(=O)c2ccc(Cl)c(Cl)c2)=C(C#N)C1c1cccc(C)c1` (racemic) [Compound 20] to `CC(=O)C1=C(C)NC(SCC(=O)c2ccc(Cl)c(Cl)c2)=C(C#N)C1c1ccccc1Cl` (racemic) [Compound 21], the “% increase … at 10 mM Cpd” value rises from 79% to 126%.

Compared with `CC(=O)C1=C(C)NC(SCC(=O)c2cc(Cl)ccc2Cl)=C(C#N)C1c1ccc(Br)cc1` (racemic) [Compound 23], `CC(=O)C1=C(C)NC(SCC(=O)c2cc(Cl)ccc2Cl)=C(C#N)C1c1cccs1` (racemic) [Compound 33] is higher in “% increase … at 10 mM Cpd” value: 70% for the first, 181% for the second.

Going from `CCc1ccc(C2C(C#N)=C(SCC(=O)c3cccc([N+](=O)[O-])c3)NC(C)=C2C(C)=O)cc1` (racemic) [Compound 24] to `CC(=O)C1=C(C)NC(SCC(=O)c2cccc([N+](=O)[O-])c2)=C(C#N)C1c1cccs1` (racemic) [Compound 30], the “% increase … at 10 mM Cpd” value rises from 130% to 156%.

First: CC(=O)C1=C(C)NC(SCC(=O)c2ccc(Cl)c(Cl)c2)=C(C#N)C1c1cccs1 (racemic) [Compound 31]
Second: CC(=O)C1=C(C)NC(SCC(=O)c2ccc(Cl)cc2Cl)=C(C#N)C1c1cccs1 (racemic) [Compound 32]
The “% increase … at 10 mM Cpd” value of the first is higher: 151% for the first, 45% for the second.

Compared with `CC(=O)C1=C(C)NC(SCC(=O)c2ccc(Cl)cc2Cl)=C(C#N)C1c1ccco1` (racemic) [Compound 34], `CC(=O)C1=C(C)NC(SCC(=O)c2ccc([N+](=O)[O-])cc2)=C(C#N)C1c1ccco1` (racemic) [Compound 36] is higher in “% increase … at 10 mM Cpd” value: 97% for the first, 115% for the second.

same assay, conditions: at 3 µM; NRVM, 3 days

In the case of `CC(=O)C1=C(C)NC(SCC(=O)c2ccc(Cl)c(Cl)c2)=C(C#N)C1c1ccco1` (racemic) [Compound 35], the “% increase of a-MyHC over baseline (at 3 µM)” value is reported as 125 (at 3 mM) %.

same assay, conditions: tested according to Example 1; read-out: MPE50 for increasing α-MyHC protein levels

With `CC(=O)C1=C(C)NC(SCC(=O)c2cccc([N+](=O)[O-])c2)=C(C#N)C1c1ccccc1Cl` (stereo not drawn) [R-enantiomer] the EC50 was 0.79 µM.
In the case of `CC(=O)C1=C(C)NC(SCC(=O)c2cccc([N+](=O)[O-])c2)=C(C#N)C1c1ccccc1Cl` (stereo not drawn) [S-enantiomer], the EC50 is reported as over 32 µM.

system: secretion of atrial natriuretic factor; assay: Anti-hypertrophic activity in NRVM, ANF ELISA (ANF secretion); assay type: cell-based, rat; settings: NRVM, hypertrophy induced by pharmacological stimuli; read-out: IC50 of the ANF ELISA (antihypertrophic activity)
Experimental: Anti-hypertrophic Activity of Racemic Compound 1 and Purified Enantiomers of Compound 1. Neonatal rat ventricular myocytes (NRVM) were isolated from 1 to 3 day-old Sprague-Dawley rats using enzymatic digestion and myocyte enrichment techniques. NRVM were cultured in serum-containing media for 18 hours. For the continuation of culture, serum-free media was used. Hypertrophy of NRVM was induced using pharmacological stimuli, including phenylephrine, endothelin-1, and […]. Hypertrophic responses were determined using methods including the following: measurement of total cellular protein; secretion of atrial natriuretic factor; determination of cell volume; determination of the expression of so-called fetal genes such as atrial natriuretic factor, beta-myosin heavy chain and alpha-skeletal actin. ANF secretion was the most sensitive assay for measuring hypertrophy, and the IC50 of the ANF ELISA was the measurement used to determine antihypertrophic activity.

Compound `CC(=O)C1=C(C)NC(SCC(=O)c2cccc([N+](=O)[O-])c2)=C(C#N)C1c1ccccc1Cl` (stereo not drawn) [R-enantiomer] has an IC50 of 1.1 µM.
With `CC(=O)C1=C(C)NC(SCC(=O)c2cccc([N+](=O)[O-])c2)=C(C#N)C1c1ccccc1Cl` (stereo not drawn) [S-enantiomer] the IC50 was 0.389 µM.
